Experimental data published in US10350210B2, “EGFR and ALK dual inhibitor” (PRECEDO PHARMACEUTICALS CO., LTD, priority 2015, dated 2019).

How the values were obtained:
PC-9 = assay: Growth of cancer cells (Cell Titer-Glo viability), PC-9; format: cell-based; settings: Homo sapiens; PC-9 (EGFR delE746_A750 mutant), 72 hrs
Outline: (§1)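 Cells are counted as viable by CellTiter-Glo chemiluminescence. Murine BaF3 lines depend on a stably transfected TEL-fused kinase after IL-3 withdrawal, and the NSCLC lines express mutant EGFR.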

[1] = tested on: non-small cell lung cancer cell H3122 subcutaneous tumors; assay: Mouse tumor model of non-small cell lung cancer cell H3122; format: in vivo; settings: for tumor inhibition rate: Bal b/c mice
Description: Similarly, 72 Bal b/c female mice, 4-6 weeks old, were purchased from Shanghai SLAC Laboratory Animal Co., Ltd., and maintained in an SPF laboratory. Drinking water and bedding were both sterilized by autoclaving. All operations involving the mice were performed under aseptic conditions. At day 0, 5×10^6 non-small cell lung cancer cells H3122 (purchased from ATCC) were injected subcutaneously into the left flank of all mice. At day 15, all mice were divided into eight groups (9 mice per group), and the first group of mice were orally administered with methyl cellulose (HKI) solvent, the second group of mice were orally administered with Compound 1 at a dose of 5 mg/kg mouse weight, the third group of mice were orally administered with Compound 1 at a dose of 10 mg/kg mouse weight, the fourth group of mice were orally administered with Compound 1 at a dose of 20 mg/kg mouse weight, the fifth group of mice were orally administered with methyl cellulose (HKI) solvent, the sixth group of mice were orally administered with Compound 10 at a dose of 10 mg/kg mouse weight, the seventh group of mice were orally administered with Compound 10 at a dose of 20 mg/kg mouse weight, and the eighth group of mice were orally administered with Compound 10 at a dose of 40 mg/kg mouse weight daily. Starting from the administration, the length/width of the subcutaneous tumor was measured daily with a vernier caliper, and the weight of the mice was recorded daily to observe the effect of Compounds 1 and 10 on the body weight of the mice. For the first to fourth groups, the mice were sacrificed at day 36 and the subcutaneous tumors were collected. The tumors were weighed, and then the tumor tissues were used to prepare protein lysates for use. The growth trend of the subcutaneous tumor within 16-36 days was plotted, wherein the tumor volume was calculated as length×width×width/2 mm^3. For the fifth to eighth groups, the mice were sacrificed at day 43 and the subcutaneous tumors were collected. The tumors were weighed, and then the tumor tissues were used to prepare protein lysates for use. The growth trend of the subcutaneous tumor within 16-43 days was plotted, wherein the tumor volume was calculated as length×width×width/2 mm^3.

BaF3-NPM-ALK = assay: Cell growth (Cell Titer-Glo viability), BaF3-NPM-ALK; format: cell-based; settings: Mus musculus; BaF3-NPM-ALK (stably expressing ALK kinase), 72 hrs
NCI-H1975 = assay: Growth of cancer cells (Cell Titer-Glo viability), NCI-H1975; format: cell-based; settings: Homo sapiens; NCI-H1975 (EGFR L858R/T790M double mutant), 72 hrs
Outline: as §1

CHL = assay: Cell growth (Cell Titer-Glo viability), CHL; format: cell-based, Chinese hamster; settings: Cricetulus griseus; CHL Chinese hamster lung cell, 72 hrs; read-out: GI50

SMILES	GI50 (PC-9) [nM]	tumor inhibition rate ([1]; oral daily 20 mg/kg) [%]	tumor inhibition rate ([1]; oral daily 40 mg/kg) [%]	body weight of the mice ([1]; oral daily 20 mg/kg)	body weight of the mice ([1]; oral daily 40 mg/kg)	GI50 (BaF3-NPM-ALK) [nM]	GI50 (NCI-H1975) [nM]	GI50 (CHL) [nM]	tumor inhibition rate ([1]; oral daily 10 mg/kg, on the second day of administration) [%]	body weight of the mice ([1]; oral daily 10 mg/kg)
C=CC(=O)Nc1cc(Nc2ncc(Cl)c(Nc3ccccc3S(=O)(=O)C(C)C)n2)c(OC)cc1N1CCCN(C)CC1 [Compound 10, N-(5-(5-chloro-4-(2-(isopropylsulfonyl)phenylamino)pyrimidin-2-ylamino)-4-methoxy-2-(4-methyl-1,4-homopiperazin-1-yl)phenyl)acrylamide]	15	68.3	78.4	did not decrease	did not decrease	1	15	3500	–	–
C=CC(=O)Nc1cc(Nc2ncc(Cl)c(Nc3ccccc3S(=O)(=O)C(C)C)n2)c(OC)cc1N1CCN(CC)CC1 [Compound 1, N-(5-(5-chloro-4-(2-(isopropylsulfonyl)phenylamino)pyrimidin-2-ylamino)-2-(4-ethylpiperazin-1-yl)-4-methoxyphenyl)acrylamide]	0.7	77.7	–	–	–	< 0.3	67	1800	61.5	did not decrease
